In patent US20250017213A1, “COMPOSITION FOR MODULATING MICROBIAL GROWTH” (DSM AUSTRIA GMBH, priority 2021, published 2025):

Test system: Lactobacillus reuteri F 275 (DSMZ 20016)
Test: microbe, parasite or virus in culture
Conditions: Limosilactobacillus reuteri

Compound `O=CO` [formic, formic acid] has an inhibition at […] (DSMZ20016, NCI-H125, 4 h) of 23.4%, an inhibition at […] (DSMZ20016, NCI-H125, 5 h) of 38.2% and an inhibition at […] (DSMZ20016, NCI-H125, 6 h) of 39.8%. The inhibition at […] (DSMZ20016, NCI-H125, 7 h) was 39.7% and the inhibition at […] (DSMZ20016, NCI-H125, 10 h) was 39.5%.
